Measured values from patent publication US6224849A, “Alkylaminobenzothiazole and-benzoxazole derivatives” (Janssen Pharmaceutica N.V., priority 1996, dated 2001).

What follows are compounds tested against T1, cloned human D4 receptors (Homo sapiens, UniProt P21917) (assay: In vitro radioligand binding affinity for dopamine D4 receptor (3H-spiperone competition, transfected CHO cell membranes)). Settings: membranes of transfected CHO cells expressing cloned human D4 receptors, read-out: pIC50 (-log IC50), dopamine D4 receptor (converted).
T1 construct: purchased Receptor Biology, Maryland, USA; host or cells: transfected Chinese Hamster Ovary (CHO) cells (membrane preparation)
T1 sequence (P21917 1-419): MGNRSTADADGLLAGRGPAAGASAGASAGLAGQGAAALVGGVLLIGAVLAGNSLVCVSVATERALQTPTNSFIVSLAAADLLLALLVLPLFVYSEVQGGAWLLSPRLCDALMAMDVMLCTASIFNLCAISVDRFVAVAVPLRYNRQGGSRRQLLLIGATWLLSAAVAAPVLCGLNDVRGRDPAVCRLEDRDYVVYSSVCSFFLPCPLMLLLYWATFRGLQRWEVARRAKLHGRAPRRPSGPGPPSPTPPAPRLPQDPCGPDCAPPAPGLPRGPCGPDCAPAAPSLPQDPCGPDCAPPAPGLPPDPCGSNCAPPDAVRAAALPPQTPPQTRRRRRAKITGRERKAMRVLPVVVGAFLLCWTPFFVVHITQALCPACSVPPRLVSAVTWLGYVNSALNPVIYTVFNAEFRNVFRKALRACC
Description: In vitro binding affinity for dopamine D4 receptor
The interaction of the compounds of formula (I) with the dopamine D4 receptors was assessed in in vitro radioligand binding experiments.
A low concentration of ^3 H-spiperone with a high binding affinity for the dopamine D4 receptor was incubated with a sample of a membrane preparation of transfected Chinese Hamster Ovary (CHO) cells which express cloned human D4 receptors (Receptor Biology, Maryland, USA) in a buffered medium. When equilibrium of binding was reached, the receptor bound radioactivity was separated from the non-bound radioactivity, and the receptor bound activity was counted. The interaction of the test compounds, added to the incubation mixture in various concentrations, with the dopamine D4 receptor was assessed in competition binding experiments as described by Schotte et al. (Psychopharmacology, 1996, 124, 57-73).

Structure (SMILES) | IC50 [nM]
c1ccc(N2CCN(CCNc3nc4ccccc4s3)CC2)cc1 [Compound 6, N-[2-(4-phenyl-1-piperazinyl)ethyl]-2-benzothiazolamine] | ≤ 100
Fc1ccc(N2CCN(CCCNc3nc4ccccc4s3)CC2)cc1 [Compound 25] | ≤ 100
CN(CCCN1CCN(c2ccc(Cl)c(Cl)c2)CC1)c1nc2ccccc2s1 [Compound 100] | ≤ 100
CN(CCN1CCN(c2ccc(Cl)c(Cl)c2)CC1)c1nc2ccccc2s1 [Compound 101] | ≤ 100
Clc1ccc(N2CCN(CCN(Cc3ccccc3)c3nc4ccccc4s3)CC2)cc1Cl [Compound 106] | ≤ 100
c1ccc2c(N3CCN(CCNc4nc5ccccc5s4)CC3)cccc2c1 [Compound 119] | ≤ 100

Continued, values first:

IC50 [nM] | Structure (SMILES)
≤ 100 | COc1ccc(N2CCN(CCNc3nc4ccccc4s3)CC2)cc1 [Compound 21]
≤ 100 | COc1ccc(N2CCN(CCNc3nc4ccccc4s3)CC2)cc1OC [Compound 23]
≤ 100 | Clc1ccc(N2CCN(CCNc3nc4ccccc4s3)CC2)cc1 [Compound 134]
